Results as given in patent publication US6486202B1, “Inhibitors of isoprenyl transferase” (Eisai Company, Limited, priority 2001, dated 2002).
Blank lines part the entries; values can stand above or below the compound they belong to.

Assays:
[1] = tested on: H-ras farnesylation in H-ras (61 L) transformed NIH3T3 fibroblasts; assay: Inhibition of H-ras farnesylation in whole cells (Western blot); assay type: cell-based; settings: treated 24 hours
Procedure: The ability of compounds of the invention to inhibit H-ras farnesylation and rapl geranylgeranylation in whole cells was determined. H-ras (61 L) transformed NIH3T3 fibroblasts were generously provided by C. Der, Univ. N. Carolina. These fibroblasts were treated for 24 hours with 50 μM lovastatin (control) or the indicated concentrations of inhibitor. The cells were lysed in 1% NP-40, 5mM Tris-HCl (pH 8.0), 5mM EDTA, 0.1mM N-tosyl-L-phenylalanine chloromethyl ketone, 0.1mM N-tosyl-L-lysine chloromethyl ketone, and 1 mM phenylmethylsulfonyl fluoride. The lysate was centrifuged (15000×g, 5 minutes.) and the supernatant was used as a cell extract. Total protein was separated by SDS-PAGE in 15% acrylamnide gel. After transfer to IMMOBILON P™ membrane (Millipore), the blots were probed with LA069 mouse monoclonal antibody to H-ras (Quality Biotech), or rabbit polyclonal antibody to rap1/Krev (Santa Cruz Biotechnology). All Western blots were developed using ECL chemiluminescent reagents (Amersham).

[2] = tested on: anchorage-independent cell growth; assay: Soft agar, anchorage-independent cell growth (Table 2); assay type: cell-based
FTase = FTase (Homo sapiens, UniProt P49354+P49356); assay: FTase prenylation assay (partially purified FTase, recombinant H-ras, [3H] farnesyl pyrophosphate); assay type: biochemical; settings: 3 μM recombinant H-ras, 440 nM [3H] FPP, 15 minutes at 37° C.
GGTase = GGTase (Homo sapiens, UniProt P49354+P53609); assay: GGTase prenylation assay (partially purified GGTase, recombinant H-ras 61 L CAIL, [3H] geranylgeranyl diphosphate); assay type: biochemical; settings: 5 μM recombinant H-ras (61 L, CAIL), 1 μM [3H] geranylgeranyl diphosphate
MIA PaCa-2 cells [3] = assay: Anchorage-independent growth of tumor cells in culture, compound 10 and paclitaxel; assay type: cell-based; settings: for number of colonies: 17 day incubation
Procedure: 4×10^3MIA PaCa-2 cells (ATCC CRL1420) were seeded on 24-well culture plates in 0.2 mL of 0.33 Noble agar in 10% fetal calf serum/RPMI1640 medium over 0.4 mL of 0.66% Noble agar in the same culture medium. The top agar layer was overlayed with 0.2 mL of 0.66% Noble agar in culture medium. The upper agar was covered with 0.2 mL of culture medium containing the indicated concentration of paclitaxel and the indicated concentration of compound 10.
At the end of a 17 day incubation, 0.2 mL of 3.3 mg/mL 3-[4,5-dimethylthiazol-2-yl]-2,5-diphenyltetrazolium bromide in phosphate buffered saline was added and incubated for 1 hour. The number of stained colonies was analyzed with an image analyzer computer program.

MIA PaCa-2 cells [4] = assay: In vivo tumor model, subcutaneous MIA PaCa-2 tumors in nude mice; parameters: species or system nude mice (BALB/c-nu/nu)
Procedure: 5×10^6 MIA PaCa-2 cells in Hank's balanced salt solution were injected subcutaneously into the flanks of 6 to 8 week old female nude mice (BALB/c-nu/nu) at day 1. […] Compound 10 and paclitaxel were administered intravenously once a day for 5 days from day 6. Tumor volume was measured on the days indicated. Tumor volume was calculated according to the equation: tumor volume (mm^3)=(length×width^2)/2. The results are shown in FIG. 1, where the bars indicated standard deviation. The n value for the assays is 5.

[5] = paclitaxel alone 6.25 mg/kg/day intravenously once a day for 5 days from day 6

Compound: COC(=O)[C@H](CCSC)NC(=O)c1cc(C/C=C/C(N)CS)ccc1C(C)C (stereo partly shown)
IC50 [1]: 22 nM
IC50 [2]: 11 nM

IC50 (FTase): 8 nM
IC50 (GGTase): 680 nM
Compound: CSCCC(NC(=O)c1cc(CCCC(N)CS)ccc1C(C)C)C(=O)O (stereo not shown)

Compound: CSCC[C@H](NC(=O)c1cc(CCCC(N)CS)ccc1C(C)C)C(=O)NCc1ccco1 (stereo partly shown)
IC50 [1]: 200 nM
IC50 [2]: 300 nM

Compound: COC(=O)[C@H](CCSC)NC(=O)c1cc(CCC[C@@H](N)CS)ccc1C(C)C.Cl [Compound 10]
number of colonies (MIA PaCa-2 cells [3]; compound 10 3.13 nM + paclitaxel 0.63 nM): 255
number of colonies (MIA PaCa-2 cells [3]; compound 10 3.13 nM + paclitaxel 1.25 nM): 204
number of colonies (MIA PaCa-2 cells [3]; compound 10 3.13 nM + paclitaxel 2.5 nM): 64
number of colonies (MIA PaCa-2 cells [3]; compound 10 3.13 nM + paclitaxel 5 nM): 8
number of colonies (MIA PaCa-2 cells [3]; compound 10 3.13 nM, paclitaxel 0 nM): 271
number of colonies (MIA PaCa-2 cells [3]; compound 10 6.25 nM + paclitaxel 0.63 nM): 214
number of colonies (MIA PaCa-2 cells [3]; compound 10 6.25 nM + paclitaxel 1.25 nM): 168
number of colonies (MIA PaCa-2 cells [3]; compound 10 6.25 nM + paclitaxel 2.5 nM): 36
number of colonies (MIA PaCa-2 cells [3]; compound 10 6.25 nM + paclitaxel 5 nM): 4
number of colonies (MIA PaCa-2 cells [3]; compound 10 6.25 nM, paclitaxel 0 nM): 210
number of colonies (MIA PaCa-2 cells [3]; compound 10 12.5 nM + paclitaxel 0.63 nM): 203
number of colonies (MIA PaCa-2 cells [3]; compound 10 12.5 nM + paclitaxel 1.25 nM): 148
number of colonies (MIA PaCa-2 cells [3]; compound 10 12.5 nM + paclitaxel 2.5 nM): 22
number of colonies (MIA PaCa-2 cells [3]; compound 10 12.5 nM + paclitaxel 5 nM): 1
number of colonies (MIA PaCa-2 cells [3]; compound 10 12.5 nM, paclitaxel 0 nM): 189
number of colonies (MIA PaCa-2 cells [3]; compound 10 25 nM + paclitaxel 0.63 nM): 173
number of colonies (MIA PaCa-2 cells [3]; compound 10 25 nM + paclitaxel 1.25 nM): 124
number of colonies (MIA PaCa-2 cells [3]; compound 10 25 nM + paclitaxel 2.5 nM): 16
number of colonies (MIA PaCa-2 cells [3]; compound 10 25 nM + paclitaxel 5 nM): 1
number of colonies (MIA PaCa-2 cells [3]; compound 10 25 nM, paclitaxel 0 nM): 161
number of colonies (MIA PaCa-2 cells [3]; compound 10 50 nM + paclitaxel 0.63 nM): 119
number of colonies (MIA PaCa-2 cells [3]; compound 10 50 nM + paclitaxel 1.25 nM): 74
number of colonies (MIA PaCa-2 cells [3]; compound 10 50 nM + paclitaxel 2.5 nM): 0
number of colonies (MIA PaCa-2 cells [3]; compound 10 50 nM + paclitaxel 5 nM): 0
number of colonies (MIA PaCa-2 cells [3]; compound 10 50 nM, paclitaxel 0 nM): 97
number of colonies (MIA PaCa-2 cells [3]; compound 10 100 nM + paclitaxel 0.63 nM): 72
number of colonies (MIA PaCa-2 cells [3]; compound 10 100 nM + paclitaxel 1.25 nM): 26
number of colonies (MIA PaCa-2 cells [3]; compound 10 100 nM + paclitaxel 2.5 nM): 0
number of colonies (MIA PaCa-2 cells [3]; compound 10 100 nM + paclitaxel 5 nM): 0
number of colonies (MIA PaCa-2 cells [3]; compound 10 100 nM, paclitaxel 0 nM): 64
number of colonies (MIA PaCa-2 cells [3]; compound 10 200 nM + paclitaxel 0.63 nM): 30
number of colonies (MIA PaCa-2 cells [3]; compound 10 200 nM + paclitaxel 1.25 nM): 11
number of colonies (MIA PaCa-2 cells [3]; compound 10 200 nM + paclitaxel 2.5 nM): 0
number of colonies (MIA PaCa-2 cells [3]; compound 10 200 nM + paclitaxel 5 nM): 0
number of colonies (MIA PaCa-2 cells [3]; compound 10 200 nM, paclitaxel 0 nM): 23
number of colonies (MIA PaCa-2 cells [3]; compound 10 400 nM + paclitaxel 0.63 nM): 6
number of colonies (MIA PaCa-2 cells [3]; compound 10 400 nM + paclitaxel 1.25 nM): 1
number of colonies (MIA PaCa-2 cells [3]; compound 10 400 nM + paclitaxel 2.5 nM): 0
number of colonies (MIA PaCa-2 cells [3]; compound 10 400 nM + paclitaxel 5 nM): 0
number of colonies (MIA PaCa-2 cells [3]; compound 10 400 nM, paclitaxel 0 nM): 3
interaction with paclitaxel (MIA PaCa-2 cells [3]; compound 10 at 3.13 to 200 nM with paclitaxel 2.5 to 5 nM): synergistic
interaction with paclitaxel (MIA PaCa-2 cells [3]; compound 10 at 100 to 200 nM with 1.25 nM paclitaxel): synergistically tumoricidal
tumor regression (MIA PaCa-2 cells [4]; compound 10 25 mg/kg/day plus paclitaxel 6.25 mg/kg/day intravenously once a day for 5 days from day 6, by 20 days after tumor cell implantation): all tumors in all mice had completely regressed

IC50 (FTase): 1 nM
IC50 (GGTase): 2170 nM
Compound: CSCCC(NC(=O)c1cc(CC=CC(N)CS)ccc1C)C(=O)O (stereo not shown)

IC50 (FTase): 300 nM
IC50 (GGTase): 1600 nM
Compound: COC(=O)C(CCSC)NC(=O)c1cc(CC=CC(N)CS)ccc1C (stereo not shown)

IC50 (FTase): 560 nM
IC50 (GGTase): 1840 nM
Compound: CCc1ccc(CC=CC(N)CS)cc1C(=O)NC(CCSC)C(=O)OC (stereo not shown)

Compound: CCc1ccc(C/C=C/C(N)CS)cc1C(=O)N[C@@H](CCSC)C(=O)O (stereo partly shown)
IC50 [1]: 360 nM
IC50 [2]: 950 nM

Compound: CSCC[C@H](NC(=O)c1cc(C/C=C/C(N)CS)ccc1C(C)C)C(=O)O (stereo partly shown)
IC50 [1]: 430 nM
IC50 [2]: 160 nM

IC50 (FTase): 80 nM
IC50 (GGTase): 3190 nM
Compound: COC(=O)C(CCSC)NC(=O)c1cc(CC=CC(N)CS)ccc1C(C)C (stereo not shown)

Compound: CCc1ccc(C/C=C/C(N)CS)cc1C(=O)N[C@@H](CCSC)C(=O)OC (stereo partly shown)
IC50 [1]: 56 nM
IC50 [2]: 13 nM

IC50 (FTase): 23 nM
IC50 (GGTase): 450 nM
Compound: CSCCC(NC(=O)c1cc(CC=CC(N)CS)ccc1C(C)C)C(=O)O (stereo not shown)

IC50 (FTase): 9 nM
IC50 (GGTase): 420 nM
Compound: CCc1ccc(CC=CC(N)CS)cc1C(=O)NC(CCSC)C(=O)O (stereo not shown)

Compound: CC(=O)O[C@H]1C(=O)[C@@]2(C)[C@H]([C@H](OC(=O)c3ccccc3)[C@]3(O)C[C@H](OC(=O)[C@H](O)[C@@H](NC(=O)c4ccccc4)c4ccccc4)C(C)=C1C3(C)C)[C@]1(OC(C)=O)CO[C@@H]1C[C@@H]2O [Paclitaxel, paclitaxel, reference compound]
number of colonies (MIA PaCa-2 cells [3]; paclitaxel 0.63 nM, compound 10 0 nM): 235
number of colonies (MIA PaCa-2 cells [3]; paclitaxel 1.25 nM, compound 10 0 nM): 234
number of colonies (MIA PaCa-2 cells [3]; paclitaxel 2.5 nM, compound 10 0 nM): 172
number of colonies (MIA PaCa-2 cells [3]; paclitaxel 5 nM, compound 10 0 nM): 48
tumor growth (MIA PaCa-2 cells [4]; [5]): inhibited tumor growth
tumor regression (MIA PaCa-2 cells [4]; [5]): no tumor regression ever occurred

IC50 (FTase): 73 nM
IC50 (GGTase): 4440 nM
Compound: COC(=O)C(CCSC)NC(=O)c1cc(CCCC(N)CS)ccc1C(C)C (stereo not shown)

Compound: COC(=O)[C@H](CCSC)NC(=O)c1cc(CCCC(N)CS)ccc1C(C)C (stereo partly shown)
IC50 [1]: 28 nM
IC50 [2]: 19 nM

Compound: CSCC[C@H](NC(=O)c1cc(CCCC(N)CS)ccc1C(C)C)C(=O)O (stereo partly shown)
IC50 [1]: 390 nM
IC50 [2]: 150 nM

Compound: COC(=O)[C@H](CCSC)NC(=O)c1cc(C/C=C/C(N)CS)ccc1C (stereo partly shown)
IC50 [1]: 120 nM
IC50 [2]: 75 nM

IC50 (FTase): 67 nM
IC50 (GGTase): 4430 nM
Compound: CSCCC(NC(=O)c1cc(CCCC(N)CS)ccc1C(C)C)C(=O)NCc1ccco1 (stereo not shown)

Compound: CSCC[C@H](NC(=O)c1cc(C/C=C/C(N)CS)ccc1C)C(=O)O (stereo partly shown)
IC50 [1]: 4000 nM
IC50 [2]: 9000 nM
